Assay results from ChEMBL document CHEMBL1201862, “PubChem BioAssay data set” (2004).
Active and inactive are the calls of the source.

Legend:
[1] = target: Photoreceptor-specific nuclear receptor (Homo sapiens, UniProt Q9Y5X4); assay type: functional, cell-based;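 note: CHO-S cells with Gal4-NCOR and VP16-NR2E3 two-hybrid luciferase reporter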
[2] = cells; assay type: functional, cell-based
[3] = target: Nuclear receptor subfamily 0 group B member 1 (Homo sapiens, UniProt P51843); assay type: functional, cell-based;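 note: HEK293T cells transfected with SF-1 and DAX-1 plus StAR promoter luciferase reporter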
Sequence of Nuclear receptor subfamily 0 group B member 1 (P51843 whole entry, the tested form may be a part): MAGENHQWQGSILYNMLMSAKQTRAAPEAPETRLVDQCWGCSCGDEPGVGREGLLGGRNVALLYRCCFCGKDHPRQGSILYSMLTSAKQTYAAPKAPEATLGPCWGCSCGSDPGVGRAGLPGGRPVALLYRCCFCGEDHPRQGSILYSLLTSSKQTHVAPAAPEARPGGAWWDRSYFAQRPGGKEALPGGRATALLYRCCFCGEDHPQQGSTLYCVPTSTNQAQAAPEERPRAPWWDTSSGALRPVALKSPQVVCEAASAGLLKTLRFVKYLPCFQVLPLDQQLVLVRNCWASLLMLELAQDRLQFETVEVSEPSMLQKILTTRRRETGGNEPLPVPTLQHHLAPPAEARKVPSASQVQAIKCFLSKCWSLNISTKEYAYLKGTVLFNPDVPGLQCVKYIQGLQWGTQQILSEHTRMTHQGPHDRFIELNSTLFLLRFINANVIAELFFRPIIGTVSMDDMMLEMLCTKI

[4] = target: T1, Oxysterols receptor LXR-beta (Homo sapiens, UniProt P55055); assay type: functional, cell-based;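 note: Cell-based luminescence dose-response assay of agonist activity at LXR, run as a confirmatory counterscreen to a daf-12 agonist screen; HEK293 cells with Gal4-LXR fusion and GAL4-driven luciferase reporter; agonist potency from rising luciferase signal of a Gal4-LXR reporter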
T1 sequence (P55055 whole entry): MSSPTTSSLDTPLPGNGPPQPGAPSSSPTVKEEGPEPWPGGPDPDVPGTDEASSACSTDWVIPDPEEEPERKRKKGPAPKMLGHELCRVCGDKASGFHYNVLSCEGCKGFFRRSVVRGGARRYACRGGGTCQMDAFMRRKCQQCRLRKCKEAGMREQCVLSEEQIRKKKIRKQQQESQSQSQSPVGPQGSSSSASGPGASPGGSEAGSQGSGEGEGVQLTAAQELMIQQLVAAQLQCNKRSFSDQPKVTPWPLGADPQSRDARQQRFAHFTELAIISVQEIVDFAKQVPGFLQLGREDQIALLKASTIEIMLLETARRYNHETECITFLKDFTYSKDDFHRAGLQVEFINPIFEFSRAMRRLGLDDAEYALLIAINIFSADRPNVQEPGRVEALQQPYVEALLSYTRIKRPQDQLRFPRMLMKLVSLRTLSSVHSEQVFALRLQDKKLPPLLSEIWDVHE

[5] = cells
[6] = test system: Cryptococcus neoformans; test: PubChem AID 686997; assay type: functional, organism-based
[7] = HEK293T cytotoxicity, dose response, cytotoxicity control for miR-122 modulator project, cell-based, inhibitor set, cherry-pick, set 2 (AID 720697); assay type: functional
[8] = target: Mu-type opioid receptor (Homo sapiens, UniProt P35372); assay type: functional, cell-based;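 note: U2OS cells with beta-arrestin recruitment to OPRM1 by beta-gal complementation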
Sequence of Mu-type opioid receptor (P35372 whole entry): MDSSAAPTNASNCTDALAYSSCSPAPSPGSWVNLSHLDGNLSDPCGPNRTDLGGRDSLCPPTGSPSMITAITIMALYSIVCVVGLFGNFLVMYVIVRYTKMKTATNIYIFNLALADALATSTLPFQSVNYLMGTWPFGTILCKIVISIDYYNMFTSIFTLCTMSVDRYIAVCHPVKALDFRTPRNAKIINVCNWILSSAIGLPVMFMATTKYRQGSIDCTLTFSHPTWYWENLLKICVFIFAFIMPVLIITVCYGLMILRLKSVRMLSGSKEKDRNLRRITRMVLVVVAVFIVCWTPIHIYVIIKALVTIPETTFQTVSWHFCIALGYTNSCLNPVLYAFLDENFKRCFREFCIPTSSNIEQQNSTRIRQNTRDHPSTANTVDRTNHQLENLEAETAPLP

[9] = target: 5-hydroxytryptamine receptor 2A (Mus musculus, UniProt P35363); assay type: functional, cell-based;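 note: CHO-K1 cells with tagged receptor and beta-arrestin; agonist potency measured as compound-induced activation of the receptor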
Sequence of 5-hydroxytryptamine receptor 2A (P35363 whole entry): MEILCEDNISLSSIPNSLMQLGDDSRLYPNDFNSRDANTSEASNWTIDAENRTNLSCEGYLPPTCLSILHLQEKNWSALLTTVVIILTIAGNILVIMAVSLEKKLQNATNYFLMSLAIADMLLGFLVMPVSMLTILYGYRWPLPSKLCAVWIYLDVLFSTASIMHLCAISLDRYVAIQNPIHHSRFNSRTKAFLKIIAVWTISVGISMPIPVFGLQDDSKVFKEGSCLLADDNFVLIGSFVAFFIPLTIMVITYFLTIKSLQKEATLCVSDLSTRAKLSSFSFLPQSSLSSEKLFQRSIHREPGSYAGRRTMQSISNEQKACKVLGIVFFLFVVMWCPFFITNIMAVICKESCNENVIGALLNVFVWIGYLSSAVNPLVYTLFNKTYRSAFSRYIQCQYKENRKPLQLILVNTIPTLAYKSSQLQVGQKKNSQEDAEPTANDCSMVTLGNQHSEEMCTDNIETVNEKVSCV

[10] = cells; assay type: functional, cell-based; remark: listed apart in the source
[11] = cells; assay type: functional, cell-based; remark: listed apart in the source
[12] = cytotoxicity in HEK-293T cells, dose response, cytotoxicity control for TCR NF-kB inhibitor project, luminescence, T-cell screen hits (AID 489026); assay type: functional, cell-based;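 note: cells exposed to compound about 14 hours before the viability readout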
[13] = target: T2, Heat shock factor protein 1 (Mus musculus, UniProt P38532); test: HSF1 potentiators in luciferase reporter cells, confirmation, cell-based, NIH3T3, luminescence, dose retest (AID 435004); assay type: functional;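 note: stress induced by proteasome inhibitor MG132 added 30 min after compound; luciferase reporter driven by HSF1 response element in NIH3T3 cells; actives raise luminescence as potentiators of the MG132 stress response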
T2 sequence (P38532 whole entry): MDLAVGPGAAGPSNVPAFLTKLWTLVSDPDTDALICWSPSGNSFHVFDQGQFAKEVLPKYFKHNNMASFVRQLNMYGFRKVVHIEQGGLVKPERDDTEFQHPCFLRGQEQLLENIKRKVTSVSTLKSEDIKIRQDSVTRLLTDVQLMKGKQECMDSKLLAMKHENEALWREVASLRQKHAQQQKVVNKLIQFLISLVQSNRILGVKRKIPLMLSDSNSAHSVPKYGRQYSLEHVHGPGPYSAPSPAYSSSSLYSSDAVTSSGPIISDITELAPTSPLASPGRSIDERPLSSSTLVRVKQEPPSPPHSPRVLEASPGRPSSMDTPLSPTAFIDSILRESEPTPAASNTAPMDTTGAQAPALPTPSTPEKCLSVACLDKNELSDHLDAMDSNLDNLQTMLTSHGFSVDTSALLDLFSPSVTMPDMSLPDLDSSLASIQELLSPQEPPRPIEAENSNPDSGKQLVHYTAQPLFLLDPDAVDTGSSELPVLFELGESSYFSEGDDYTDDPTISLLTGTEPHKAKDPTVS

[14] = test system: BJ; test: cytotoxicity toward Ras-transformed BJeLR fibroblasts, dose response, cell-based, alamar blue fluorescence, cherrypicked samples (AID 2631); assay type: functional; settings: Homo sapiens;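 note: confirmatory dose-response assay in RAS-dependent BJ fibroblasts engineered with TERT, LT and ST, with cytotoxicity read by fluorescence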
[15] = test system: INS1; test: beta cell apoptosis inhibitors, cytokine rescue, dose response, luminescence, retest (AID 449756); assay type: functional, cell-based; settings: Rattus norvegicus;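 note: cell death triggered by IL-1 beta plus TNF-alpha plus IFN-gamma mixture; protective hits raise ATP signal compared with cytokine alone wells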
[16] = test system: P388/ADR; test: cells; assay type: functional; settings: Mus musculus
[17] = test system: SN12K1; test: cells; assay type: functional; settings: Homo sapiens
[18] = test system: P388; test: cells; assay type: functional; settings: Mus musculus
[19] = inhibitors of HIV Env-driven cell fusion, dose response, cherry-pick (AID 652057); assay type: functional, cell-based
[20] = CEM21 lymphoblast cell cytotoxicity, dose response, cytotoxicity control for viral fusion inhibitor project, CellTiter-Glo luminescence, cherry-picked (AID 652042); assay type: functional, cell-based;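 note: potency for signal decrease meaning cytotoxicity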
[21] = ZM109 Env clade C HIV-1 fusion inhibitors, dose response, HeLa effector, CEM target cells, luciferase, cherry-pick (AID 652058); assay type: functional, cell-based
[22] = target: Paired box protein Pax-8 (Homo sapiens, UniProt Q06710); test: inhibitors of PAX8-driven TPO luciferase reporter, dose response, RMG-I cells, cherry-pick (AID 687027); assay type: functional, cell-based;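 note: luciferase reporter driven by Pax8 target thyroperoxidase promoter measured by SteadyGlo luminescence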
Sequence of Paired box protein Pax-8 (Q06710 whole entry, the tested form may be a part): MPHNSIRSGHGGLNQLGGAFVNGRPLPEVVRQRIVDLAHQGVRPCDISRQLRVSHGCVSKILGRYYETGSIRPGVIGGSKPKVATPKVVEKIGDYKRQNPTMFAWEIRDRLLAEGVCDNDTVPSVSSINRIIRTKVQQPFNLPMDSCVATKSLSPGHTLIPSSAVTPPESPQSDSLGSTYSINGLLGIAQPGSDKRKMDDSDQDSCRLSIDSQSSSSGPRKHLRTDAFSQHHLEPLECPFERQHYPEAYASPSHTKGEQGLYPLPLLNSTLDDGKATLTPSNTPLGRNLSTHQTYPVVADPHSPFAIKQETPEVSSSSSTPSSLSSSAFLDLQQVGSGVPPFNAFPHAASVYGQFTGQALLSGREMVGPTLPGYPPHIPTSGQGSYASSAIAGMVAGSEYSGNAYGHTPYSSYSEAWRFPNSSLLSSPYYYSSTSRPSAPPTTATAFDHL

[23] = off-target signal loss in HeLa-CEM21 co-culture – HeLa F-luc CTL cells, cherry-picked, counter-screen for HIV-1 Env fusion inhibitor project, dose response (AID 652040); assay type: functional, cell-based;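 note: potency for signal decrease marking cytotoxic or nonspecific inhibition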
[24] = inhibitors of clade B AD8 Env fusion, dose response, cell-based, cherry-pick (AID 652062); assay type: functional;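 note: luciferase signal from cell-cell fusion driven by HIV-1 clade B AD8 Env; potency is for inhibitors of fusion seen as a drop in luminescence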
[25] = Counterscreen for […] of the human trace amine associated receptor 1 (TAAR1): Fluorescence-based cell-based high throughput dose response assay to identify nonselective Ga16 agonists.; assay type: functional
[26] = Counterscreen for antagonists of the human trace amine associated receptor 1 (hTAAR1): Fluorescence-based cell-based high throughput dose response assay to identify nonselective Ga16 antagonists.; assay type: functional
[27] = target: Potassium channel subfamily K member 9 (Homo sapiens, UniProt Q9NPC2); test: TASK3 (KCNK9) channel inhibitors, thallium flux, SAR follow-up, selectivity assay for TASK1 inhibitor project, cell-based, FluxOR thallium flux, concentration-response (AID 652211); assay type: functional;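 note: potency is for inhibitors of the channel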
Sequence of Potassium channel subfamily K member 9 (Q9NPC2 whole entry): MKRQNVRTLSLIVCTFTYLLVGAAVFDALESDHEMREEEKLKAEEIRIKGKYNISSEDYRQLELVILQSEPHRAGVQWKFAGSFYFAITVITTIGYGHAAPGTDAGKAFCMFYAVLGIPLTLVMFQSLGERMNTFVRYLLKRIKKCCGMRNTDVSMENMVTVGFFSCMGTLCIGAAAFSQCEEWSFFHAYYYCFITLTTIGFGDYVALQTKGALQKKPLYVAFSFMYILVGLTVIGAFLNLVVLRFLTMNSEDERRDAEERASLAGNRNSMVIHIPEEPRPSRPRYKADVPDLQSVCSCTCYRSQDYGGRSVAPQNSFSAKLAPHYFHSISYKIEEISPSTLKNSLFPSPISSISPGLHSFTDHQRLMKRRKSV

[28] = test system: Vero; test: Vero cell toxicity, dose response, cytotoxicity control, plate reader, cherry-pick samples (AID 687020); assay type: functional, cell-based; settings: Chlorocebus sabaeus
[29] = HEK293T cell cytotoxicity, dose response, cytotoxicity control for HIV Vif inhibitor project, cherry-picks (AID 652208); assay type: functional, cell-based

Sequence of Photoreceptor-specific nuclear receptor (Q9Y5X4 whole entry, the tested form may be a part): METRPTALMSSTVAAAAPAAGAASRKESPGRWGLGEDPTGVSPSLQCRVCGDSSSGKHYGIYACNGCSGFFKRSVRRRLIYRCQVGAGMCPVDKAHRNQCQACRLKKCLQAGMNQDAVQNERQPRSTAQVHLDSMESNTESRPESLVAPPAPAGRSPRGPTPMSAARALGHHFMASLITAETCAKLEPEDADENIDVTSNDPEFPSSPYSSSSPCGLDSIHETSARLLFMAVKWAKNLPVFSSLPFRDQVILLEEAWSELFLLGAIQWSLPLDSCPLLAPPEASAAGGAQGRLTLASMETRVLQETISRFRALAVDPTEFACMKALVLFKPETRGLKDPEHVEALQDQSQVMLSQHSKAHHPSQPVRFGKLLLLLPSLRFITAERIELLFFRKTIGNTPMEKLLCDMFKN

Cc1ccnc(NC(=O)Cc2ccc(-c3ccccc3)cc2)c1
IC50 [1]: 0.741 µM (active) | IC50 [2]: > 67.5 µM (inactive) | IC50 [3]: > 67.5 µM (inactive) | EC50 [4]: > 67.5 µM (inactive) | EC50 [5]: > 67.5 µM (inactive)

COCCN1C(=S)N[C@@H](c2ccccc2)C(C(=O)OC)=C1C
AC50 [6]: > 84 µM (inactive)

O=C(c1ccco1)c1cn(Cc2ccccc2Cl)c2ccccc12
AC50 [7]: 9.08 µM (active)

CN1C[C@H](CO)C[C@@H]2c3cccc4[nH]cc(c34)C[C@H]21
EC50 [8]: 92.5 µM (inactive) | EC50 [9]: 0.0819 µM (active)

CC[C@@]1(O)C(=O)OCc2c1cc1n(c2=O)Cc2cc3c(N)cccc3nc2-1 [9-AMINOCAMPTOTHECIN]
EC50 [10]: > 350 µM (not active) | EC50 [11]: > 350 µM (not active) | IC50 [12]: > 80 µM (inactive) | EC50 [13]: > 260 µM (inconclusive) | EC50 [14]: 0.00718 µM (active) | AC50 [15]: 2.13 µM (active) | GI50 [16]: < 0.0174 µM (active) | GI50 [17]: < 0.0227 µM (active) | GI50 [18]: < 0.0119 µM (active) | IC50 [1]: 0.896 µM (active) | AC50 [19]: < 0.26 µM (active) | AC50 [20]: 2.47 µM (active) | AC50 [21]: 0.463 µM (active) | AC50 [22]: < 0.26 µM (active) | AC50 [23]: < 0.26 µM (active) | AC50 [24]: 0.348 µM (active)

Cc1nn(Cc2c(F)c(F)c(F)c(F)c2F)c(C)c1NC(=O)c1ccc(COc2ccccc2Cl)cc1
EC50 [25]: > 29.9 µM (inactive) | IC50 [26]: > 29.9 µM (inactive)

CCOc1ccccc1C(=O)Nc1cccc(NC(=O)c2ccccc2OC)c1
IC50 [27]: 1.98 µM (active)

O=C(COc1ccccc1)Nc1ccc(N2CCN(C(=O)c3cccs3)CC2)cc1
AC50 [28]: 35.4 µM (active)

Cc1cc2cc(C#N)c(SCC(=O)Nc3nonc3C)nc2cc1C
AC50 [29]: 34.9 µM (active)
